Results taken from US7053249B2, “Metal chelates and methods of using them for time-resolved fluorescence” (IDEXX Laboratories, Inc., priority 2002, dated 2006).

What was measured:
[1] = pKa of the enolic carbon of the β-diketone ligands; settings: β-diketone ligand
Description: (§1) As mentioned earlier, it is necessary to form the enolate of the dicarbonyl compound for complex formation with metal to occur. […] It is usually (by not universally) desirable to stay below pH 9.0 to allow chelate stability under physiological assay conditions.

[2] = pH range of stable chelate formation; type: physicochemical; settings: Eu chelate
Description: as §1

pKa for the enolic carbon [1]: ~4.2 | pH above which a stable chelate is formed [2]: > 4.5 pH
SMILES: O=C(CC(=O)c1ccc2ccccc2c1)c1cc(F)cc(F)c1 [compound 4]
